Test results taken from patent US20150148234A1, “HERBICIDE-RESISTANT SUNFLOWER PLANTS WITH MULTIPLE HERBICIDE RESISTANT ALLELES OF AHASL1 AND METHODS OF USE” (NIDERA S.A., priority 2013, published 2015).

Tests used:
[1] = tested on: sunflower entry 1-hybrid (WT × IMI restorer, A205V hetero); test: field phytotoxicity trial North Dakota 2006 (Example 3); assay type: in vivo
Method: (§1) • Spray volume: 10 gallons per acre (GPA) (or 100 liters/ha) for backpack sprayer or 20 GPA (or 200 liters/ha) for tractor mounted boom • Growth Stage at Herbicide Application: 2-4 leaves • Entry 15 (WT Maintainer line) was left unsprayed in all treatment blocks.
(§2) Phytotoxicity ratings were assessed at 7 and 21 days following herbicide application.
(§3) The data was subjected to an ANOVA analysis and the means from the 3 repetitions are presented in Table 7 (phytotoxicity at 7 days post-treatment) and Table 8 (phytotoxicity at 21 days post-treatment).

[2] = tested on: sunflower entry 10-hybrid (IMI CMS × GM40 restorer, A205V/A122T hetero/double); test: as above; assay type: in vivo
Method: as §1, §2, §3

[3] = tested on: sunflower entry 11-hybrid (GM40 CMS × IMI restorer, A205V/A122T hetero/double); test: as above; assay type: in vivo
Method: as §1, §2, §3

[4] = tested on: sunflower entry 12-hybrid (IMI CMS × GM40 restorer, A205V/A122T hetero/double); test: as above; assay type: in vivo
Method: as §1, §2, §3

[5] = tested on: sunflower entry 13-hybrid (GM40 CMS × GM40 restorer, A122T homo); test: as above; assay type: in vivo
Method: as §1, §2, §3

[6] = tested on: sunflower entry 14-hybrid (GM40 CMS × GM40 restorer, A122T homo); test: as above; assay type: in vivo
Method: as §1, §2, §3

[7] = tested on: sunflower entry 15-hybrid (WT × GM40 restorer, A122T hetero); test: as above; assay type: in vivo
Method: as §1, §2, §3

[8] = tested on: sunflower entry 16-hybrid (WT × GM40 restorer, A122T hetero); test: as above; assay type: in vivo
Method: as §1, §2, §3

[9] = tested on: sunflower entry 3-hybrid (WT × IMI restorer, A205V hetero); test: as above; assay type: in vivo
Method: as §1, §2, §3

[10] = tested on: sunflower entry 4-line (IMI Restorer, A205V homo); test: as above; assay type: in vivo
Method: as §1, §2, §3

[11] = tested on: sunflower entry 6-hybrid (IMI CMS × IMI restorer, A205V homo); test: as above; assay type: in vivo
Method: as §1, §2, §3

[12] = tested on: sunflower entry 7-hybrid (WT-CMS × IMI restorer, A205V hetero); test: as above; assay type: in vivo
Method: as §1, §2, §3

[13] = tested on: sunflower entry 8-hybrid (WT × GM40 restorer, A122T hetero); test: as above; assay type: in vivo
Method: as §1, §2, §3

[14] = tested on: sunflower entry 9-line (GM40 restorer, A122T homo); test: as above; assay type: in vivo
Method: as §1, §2, §3

[15] = tested on: AHAS enzyme of A122T homozygous hybrid (cmsGM40 × R733); test: AHAS enzyme activity assay, Set 1; assay type: biochemical, sunflower; conditions: 100 μM, Set 1 (FIG. 13)
Method: (§4) Twelve greenhouse grown sunflower plants from each of the lines depicted in Table 21 were bulked and subjected to an AHAS enzyme activity assay via the method of Singh et al. (1988) Anal. Biochem. 171:173-179. Each activity assay was repeated twice. Due to the large number of samples, the experiment was split into two sets (Table 21).
(§5) Young, actively growing leaves, from four week old plantlets, were ground in a mortar and pestle with liquid N2 and extracted with a buffer composed of 100 mM Pyruvate, 200 mM KH2PO4, 20 mM MgCl2, 2 mM thiamine pyrophosphate and […]. Plant extracts were then spun through a 10 mL Zeba™ TM desalt spin column (Pierce #89893) as per the manufacturer's recommendation. The inhibition assay was performed as described by Singh et al. (1988) Anal. Biochem. 171:173-179. Assays were conducted in a 96-well format. Fifty μl of inhibitor was added to each well containing 50 μl of soluble protein extract to give final concentrations of 0.78, 1.56, 3.125, 6.25, 12.5, 25, 50 and 100 μM imazamox or 0.78, 1.56, 3.125, 6.25, 12.5, 25, 50 and 100 μM imazapyr. Zero herbicide controls were also included for each line. Reactions were processed as outlined by Singh et al. (1988) Anal. Biochem. 171:173-179. Absorbance was measured at 530 nm. AHAS activity, expressed as the mean of the absorbance values for each treatment, was presented as a percentage of the mean of the zero-herbicide controls.

[16] = tested on: AHAS enzyme of A122T/A205V heterozygous hybrid (IA9 × R733); test: AHAS enzyme activity assay, Set 1; assay type: biochemical, sunflower; conditions: 100 μM, Set 1 (FIG. 13)
Method: as §4, §5

[17] = tested on: AHAS enzyme of A205V homozygous hybrid (IA9 × RHA426); test: AHAS enzyme activity assay, Set 1; assay type: biochemical, sunflower; conditions: A205V homozygous hybrids; 100 μM; Set 1 (FIG. 13)
Method: as §4, §5

[18] = 7 DAT, 50 g ai/ha imazamox + 0.25% NIS
[19] = 7 DAT, 100 g ai/ha imazamox + 0.25% NIS
[20] = 7 DAT, 200 g ai/ha imazamox + 0.25% NIS
[21] = 21 DAT, 50 g ai/ha imazamox + 0.25% NIS
[22] = 21 DAT, 100 g ai/ha imazamox + 0.25% NIS
[23] = 21 DAT, 200 g ai/ha imazamox + 0.25% NIS
[24] = 7 DAT, 160 g ai/ha imazapyr + 0.25% NIS
[25] = 21 DAT, 160 g ai/ha imazapyr + 0.25% NIS

COCc1cnc(C2=NC(C)(C(C)C)C(=O)N2)c(C(=O)O)c1 (stereo not shown) [imazamox]
Phytotoxicity Rating (% Crop Injury) [1, 18]: 8.3% | Phytotoxicity Rating (% Crop Injury) [1, 19]: 35.0% | Phytotoxicity Rating (% Crop Injury) [1, 20]: 48.3% | Phytotoxicity Rating (% Crop Injury) [1, 21]: 6.7% | Phytotoxicity Rating (% Crop Injury) [1, 22]: 25.0% | Phytotoxicity Rating (% Crop Injury) [1, 23]: 73.3% | Phytotoxicity Rating (% Crop Injury) [2, 18]: 3.3% | Phytotoxicity Rating (% Crop Injury) [2, 19]: 3.3% | Phytotoxicity Rating (% Crop Injury) [2, 20]: 10.0% | Phytotoxicity Rating (% Crop Injury) [2, 21]: 0.0% | Phytotoxicity Rating (% Crop Injury) [2, 22]: 0.0% | Phytotoxicity Rating (% Crop Injury) [2, 23]: 1.7% | Phytotoxicity Rating (% Crop Injury) [3, 18]: 0.0% | Phytotoxicity Rating (% Crop Injury) [3, 19]: 3.3% | Phytotoxicity Rating (% Crop Injury) [3, 20]: 11.7% | Phytotoxicity Rating (% Crop Injury) [3, 21]: 0.0% | Phytotoxicity Rating (% Crop Injury) [3, 22]: 0.0% | Phytotoxicity Rating (% Crop Injury) [3, 23]: 3.3% | Phytotoxicity Rating (% Crop Injury) [4, 18]: 10.0% | Phytotoxicity Rating (% Crop Injury) [4, 19]: 10.0% | Phytotoxicity Rating (% Crop Injury) [4, 20]: 11.7% | Phytotoxicity Rating (% Crop Injury) [4, 21]: 3.3% | Phytotoxicity Rating (% Crop Injury) [4, 22]: 3.3% | Phytotoxicity Rating (% Crop Injury) [4, 23]: 3.3% | Phytotoxicity Rating (% Crop Injury) [5, 18]: 3.3% | Phytotoxicity Rating (% Crop Injury) [5, 19]: 5.0% | Phytotoxicity Rating (% Crop Injury) [5, 20]: 10.0% | Phytotoxicity Rating (% Crop Injury) [5, 21]: 0.0% | Phytotoxicity Rating (% Crop Injury) [5, 22]: 1.7% | Phytotoxicity Rating (% Crop Injury) [5, 23]: 3.3% | Phytotoxicity Rating (% Crop Injury) [6, 18]: 5.0% | Phytotoxicity Rating (% Crop Injury) [6, 19]: 6.7% | Phytotoxicity Rating (% Crop Injury) [6, 20]: 11.7% | Phytotoxicity Rating (% Crop Injury) [6, 21]: 0.0% | Phytotoxicity Rating (% Crop Injury) [6, 22]: 3.3% | Phytotoxicity Rating (% Crop Injury) [6, 23]: 5.0% | Phytotoxicity Rating (% Crop Injury) [7, 18]: 10.0% | Phytotoxicity Rating (% Crop Injury) [7, 19]: 11.7% | Phytotoxicity Rating (% Crop Injury) [7, 20]: 16.7% | Phytotoxicity Rating (% Crop Injury) [7, 21]: 6.7% | Phytotoxicity Rating (% Crop Injury) [7, 22]: 11.7% | Phytotoxicity Rating (% Crop Injury) [7, 23]: 30.0% | Phytotoxicity Rating (% Crop Injury) [8, 18]: 10.0% | Phytotoxicity Rating (% Crop Injury) [8, 19]: 15.0% | Phytotoxicity Rating (% Crop Injury) [8, 20]: 23.3% | Phytotoxicity Rating (% Crop Injury) [8, 21]: 6.7% | Phytotoxicity Rating (% Crop Injury) [8, 22]: 16.7% | Phytotoxicity Rating (% Crop Injury) [8, 23]: 31.7% | Phytotoxicity Rating (% Crop Injury) [9, 18]: 11.7% | Phytotoxicity Rating (% Crop Injury) [9, 19]: 46.7% | Phytotoxicity Rating (% Crop Injury) [9, 20]: 60.0% | Phytotoxicity Rating (% Crop Injury) [9, 21]: 11.7% | Phytotoxicity Rating (% Crop Injury) [9, 22]: 46.7% | Phytotoxicity Rating (% Crop Injury) [9, 23]: 76.7% | Phytotoxicity Rating (% Crop Injury) [10, 18]: 6.7% | Phytotoxicity Rating (% Crop Injury) [10, 19]: 6.7% | Phytotoxicity Rating (% Crop Injury) [10, 20]: 18.3% | Phytotoxicity Rating (% Crop Injury) [10, 21]: 5.0% | Phytotoxicity Rating (% Crop Injury) [10, 22]: 6.7% | Phytotoxicity Rating (% Crop Injury) [10, 23]: 15.0% | Phytotoxicity Rating (% Crop Injury) [11, 18]: 5.0% | Phytotoxicity Rating (% Crop Injury) [11, 19]: 8.3% | Phytotoxicity Rating (% Crop Injury) [11, 20]: 26.7% | Phytotoxicity Rating (% Crop Injury) [11, 21]: 0.0% | Phytotoxicity Rating (% Crop Injury) [11, 22]: 3.3% | Phytotoxicity Rating (% Crop Injury) [11, 23]: 21.7% | Phytotoxicity Rating (% Crop Injury) [12, 18]: 13.3% | Phytotoxicity Rating (% Crop Injury) [12, 19]: 43.3% | Phytotoxicity Rating (% Crop Injury) [12, 20]: 56.7% | Phytotoxicity Rating (% Crop Injury) [12, 21]: 3.3% | Phytotoxicity Rating (% Crop Injury) [12, 22]: 40.0% | Phytotoxicity Rating (% Crop Injury) [12, 23]: 78.3% | Phytotoxicity Rating (% Crop Injury) [13, 18]: 13.3% | Phytotoxicity Rating (% Crop Injury) [13, 19]: 13.3% | Phytotoxicity Rating (% Crop Injury) [13, 20]: 25.0% | Phytotoxicity Rating (% Crop Injury) [13, 21]: 6.7% | Phytotoxicity Rating (% Crop Injury) [13, 22]: 11.7% | Phytotoxicity Rating (% Crop Injury) [13, 23]: 28.3% | Phytotoxicity Rating (% Crop Injury) [14, 18]: 1.7% | Phytotoxicity Rating (% Crop Injury) [14, 19]: 5.0% | Phytotoxicity Rating (% Crop Injury) [14, 20]: 10.0% | Phytotoxicity Rating (% Crop Injury) [14, 21]: 0.0% | Phytotoxicity Rating (% Crop Injury) [14, 22]: 0.0% | Phytotoxicity Rating (% Crop Injury) [14, 23]: 3.3% | AHAS activity, % of untreated control [15]: 69% | AHAS activity, % of untreated control [16]: 59% | AHAS activity, % of untreated control [17]: 36%

CC(C)C1(C)N=C(c2ncccc2C(=O)O)NC1=O (stereo not shown) [imazapyr]
Phytotoxicity Rating (% Crop Injury) [1, 24]: 16.7% | Phytotoxicity Rating (% Crop Injury) [1, 25]: 20.0% | Phytotoxicity Rating (% Crop Injury) [2, 24]: 3.3% | Phytotoxicity Rating (% Crop Injury) [2, 25]: 0.0% | Phytotoxicity Rating (% Crop Injury) [3, 24]: 3.3% | Phytotoxicity Rating (% Crop Injury) [3, 25]: 0.0% | Phytotoxicity Rating (% Crop Injury) [4, 24]: 5.0% | Phytotoxicity Rating (% Crop Injury) [4, 25]: 1.7% | Phytotoxicity Rating (% Crop Injury) [5, 24]: 5.0% | Phytotoxicity Rating (% Crop Injury) [5, 25]: 1.7% | Phytotoxicity Rating (% Crop Injury) [6, 24]: 8.3% | Phytotoxicity Rating (% Crop Injury) [6, 25]: 3.3% | Phytotoxicity Rating (% Crop Injury) [7, 24]: 8.3% | Phytotoxicity Rating (% Crop Injury) [7, 25]: 21.7% | Phytotoxicity Rating (% Crop Injury) [8, 24]: 10.0% | Phytotoxicity Rating (% Crop Injury) [8, 25]: 23.3% | Phytotoxicity Rating (% Crop Injury) [9, 24]: 35.0% | Phytotoxicity Rating (% Crop Injury) [9, 25]: 43.3% | Phytotoxicity Rating (% Crop Injury) [10, 24]: 11.7% | Phytotoxicity Rating (% Crop Injury) [10, 25]: 6.7% | Phytotoxicity Rating (% Crop Injury) [11, 24]: 8.3% | Phytotoxicity Rating (% Crop Injury) [11, 25]: 3.3% | Phytotoxicity Rating (% Crop Injury) [12, 24]: 21.7% | Phytotoxicity Rating (% Crop Injury) [12, 25]: 36.7% | Phytotoxicity Rating (% Crop Injury) [13, 24]: 13.3% | Phytotoxicity Rating (% Crop Injury) [13, 25]: 11.7% | Phytotoxicity Rating (% Crop Injury) [14, 24]: 8.3% | Phytotoxicity Rating (% Crop Injury) [14, 25]: 5.0% | AHAS activity, % of untreated control [15]: 64% | AHAS activity, % of untreated control [16]: 60% | AHAS activity, % of untreated control [17]: 42%
